According to patent US20190223483A1, “SENSORY MODIFIER COMPOUNDS” (CARGILL, INCORPORATED, priority 2017, published 2019):
“Also recorded” adds a separate entry of the source.

Key:
Format in all cases: in vivo
[1] = Roundtable assessment of bitterness (scale 0 to 6); design: key: 0 = none; 1 = trace/faint; 2 = slight; 3 = moderate; 4 = definite; 5 = strong; 6 = extreme
Method: (§1) For other sweetness attributes, the solutions were tested by a panel of at least four individuals that are highly-trained in tasting steviol glycoside solutions. The highly-trained panelists used a roundtable methodology to assess each sweetness attribute. To test each solution, the highly-trained panelists dispensed approximately 2 mL of each solution into their own mouths by transfer pipet, dispersed the solution by moving their tongues, and recorded a value for the particular sweetness attribute being tested. Between tasting solutions, the panelists were able to cleanse their palates with water. For each sweetness attribute, the panelist agreed on a descriptive scale with relative intensities assigned for each sweetness attribute and then recorded the values for each sweetness attribute against this. For example, this roundtable assessment of sweetness linger assigned a scale of 0 to 6 with a score of 0 indicating no sweetness linger and a score of 6 indicating extreme sweetness linger. Roundtable assessment of sweetness linger assigned a scale of 0 to 6 with a score of 0 indicating no sweetness linger and a score of 6 indicating extreme sweetness linger (0=none, 1=trace, 2=slight, 3=moderate, 4=definite, 5=strong, 6=extreme). Roundtable assessment of rounded assigned a scale of 0 to 3 with a score of 0 indicating spikey and a score of 3 indicating desirable rounded (0=none, 1=mostly spikey, some rounded, 2=mostly rounded, some spikey, 3=rounded). Roundtable assessment of mouthfeel assigned a scale of 0 to 2 with a score of 0 indicating water and a score of 2 indicating syrupy (0=water, 1=sucrosey, 2=syrupy). Roundtable assessment of bitterness assigned a scale of 0 to 6 with a score of 0 indicating no bitterness and a score of 6 indicating extreme sweetness linger (0=none, 1=trace, 2=slight, 3=moderate, 4=definite, 5=strong, 6=extreme). Roundtable assessment of off tastes assigned a scale of 0 to 6 with a score of 0 indicating no bitterness and a score of 6 indicating extreme off tastes (0=none, 1=trace, 2=slight, 3=moderate, 4=definite, 5=strong, 6=extreme).
(§2) A series of assays were carried out to characterize bitterness (0=none, 1=trace/faint, 2=slight, 3=moderate, 4=definite, 5=strong, 6=extreme) of steviol glycoside compositions with sensory modifier compound using the roundtable methodology described in Example 1. […] Solutions of steviol glycosides and sensory modifier compound were prepared at increasing ratios of sensory modifier to steviol glycoside by weight. The steviol glycosides were RebA (4 glycoside groups), RebD (5 glycoside groups), RebM (6 glycoside groups), and OPS1-5(7 glycoside groups) and the sensory modifier compound was monocaffeoylquinic and dicaffeoylquinic acids prepared from yerba mate. The concentration of steviol glycosides was 700 ppm in each solution. The solutions were tested for bitterness.

[2] = Roundtable assessment of botanical notes (scale 0 to 5); design: key: 0 = none; 1 = trace/faint; 2 = slight; 3 = moderate; 4 = definite; 5 = strong; 6 = extreme
Method: as §1
Roundtable assessment of botanical notes assigned a scale of 0 to 5 with a score of 0 indicating no botanical notes and a score of 5 indicating strong (0=none, 1=trace, 2=slight, 3=moderate, 4=definite, 5=strong).
A series of assays were carried out to characterize botanical notes of sensory modifier compound (0=none, 1=trace/faint, 2=slight, 3=moderate, 4=definite, 5=strong) in steviol glycoside compositions using the roundtable methodology described in Example 1. […] Solutions of steviol glycosides and sensory modifier compound were prepared at increasing ratios of sensory modifier to steviol glycoside by weight. […] The concentration of steviol glycosides was 700 ppm in each solution. The solutions were tested for botanical notes.

[3] = Roundtable assessment of astringency; design: key: 0 = none; 1 = trace/faint; 2 = slight; 3 = moderate; 4 = definite; 5 = strong; 6 = extreme
Method: Solutions of steviol glycosides and sensory modifier compound were prepared at increasing ratios of sensory modifier to steviol glycoside by weight. […] The concentration of steviol glycosides was 700 ppm in each solution. The solutions were tested for astringency.

[4] = Roundtable assessment of spikey/rounded sweetness quality (scale 0 to 3); design: key: 0=none; 1=mostly spikey, some rounded; 2=mostly rounded, some spikey; 3=rounded
Method: as §1
as §2, with “a sweetness quality of a not preferred spikey quality (a zero value) to a more desirable rounded quality (a 3 value)” for “bitterness (0=none, 1=trace/faint, 2=slight, 3=moderate, 4=definite, 5=strong, 6=extreme)”, “1. Rounded quality has the sensory experience of being more like sucrose.” for “1.”, “The concentration of steviol glycosides was 700 ppm in each solution.” left out, “spikey/rounded.” for “bitterness.”

[5] = RebM 700 ppm + cichoric acid (tartaric backbone) 772 ppm
[6] = RebM 700 ppm + cichoric acid (tartaric backbone) […]
[7] = RebM 700 ppm + rosmarinic acid 195 ppm
[8] = RebM 700 ppm + rosmarinic acid 391 ppm
[9] = steviol glycoside 700 ppm + yerba mate mono/dicaffeoylquinic acids 236 ppm
[10] = steviol glycoside 700 ppm + yerba mate mono/dicaffeoylquinic acids 472 ppm
[11] = steviol glycoside 700 ppm + yerba mate mono/dicaffeoylquinic acids 708 ppm
[12] = steviol glycoside 700 ppm, sensory modifier 0 ppm
[13] = RebM 700 ppm + cichoric acid (tartaric backbone) 514 ppm
[14] = RebM 700 ppm + rosmarinic acid 586 ppm
[15] = steviol glycoside 700 ppm + yerba mate mono/dicaffeoylquinic acids 300 ppm
[16] = steviol glycoside 700 ppm + yerba mate mono/dicaffeoylquinic acids 400 ppm
[17] = steviol glycoside 700 ppm + yerba mate mono/dicaffeoylquinic acids 500 ppm
[18] = steviol glycoside 700 ppm + yerba mate mono/dicaffeoylquinic acids 600 ppm
[19] = steviol glycoside 700 ppm + yerba mate mono/dicaffeoylquinic acids 700 ppm
[20] = steviol glycoside 700 ppm + yerba mate mono/dicaffeoylquinic acids 800 ppm

## C=C1C[C@@]23CC[C@H]4[C@@](C)(CCC[C@@]4(C)C(=O)O[C@@H]4O[C@H](CO)[C@@H](O)[C@H](O[C@@H]5O[C@H](CO)[C@@H](O)[C@H](O)[C@H]5O)[C@H]4O[C@@H]4O[C@H](CO)[C@@H](O)[C@H](O)[C@H]4O)[C@@H]2CC[C@]1(O[C@@H]1O[C@H](CO)[C@@H](O)[C@H](O[C@@H]2O[C@H](CO)[C@@H](O)[C@H](O)[C@H]2O)[C@H]1O[C@@H]1O[C@H](CO)[C@@H](O)[C@H](O)[C@H]1O)C3 [RebM, Rebaudioside M]
[1]; [5]
  Bitterness: 0
[1]; [6]
  Bitterness: 0
[1]; [7]
  Bitterness: 0
[1]; [8]
  Bitterness: 0
[1]; RebM 700 ppm, about 200 ppm sensory modifier and above
  Bitterness: not perceptible
[1]; Table 16: RebM 700 ppm + yerba mate mono/dicaffeoylquinic acids 236 ppm
  Sweetness linger: 0
[1]; Table 16: RebM 700 ppm + yerba mate mono/dicaffeoylquinic acids 300 ppm
  Sweetness linger: 0
[1]; Table 16: RebM 700 ppm + yerba mate mono/dicaffeoylquinic acids 400 ppm
  Sweetness linger: 0
[1]; Table 16: RebM 700 ppm + yerba mate mono/dicaffeoylquinic acids 472 ppm
  Sweetness linger: 0
[1]; Table 16: RebM 700 ppm + yerba mate mono/dicaffeoylquinic acids 500 ppm
  Sweetness linger: 0
[1]; Table 16: RebM 700 ppm + yerba mate mono/dicaffeoylquinic acids 600 ppm
  Sweetness linger: 0
[1]; Table 16: RebM 700 ppm + yerba mate mono/dicaffeoylquinic acids 700 ppm
  Sweetness linger: 0
[1]; Table 16: RebM 700 ppm + yerba mate mono/dicaffeoylquinic acids 708 ppm
  Sweetness linger: 0
[1]; Table 16: RebM 700 ppm + yerba mate mono/dicaffeoylquinic acids 800 ppm
  Sweetness linger: 0
[1]; Table 16: RebM 700 ppm, sensory modifier 0 ppm
  Sweetness linger: 5
[1]; quinic, tartaric or 3-(3,4-dihydroxyphenyl)lactic acid backbone modifier above 200 ppm
  Bitterness: none
[1]; [9]
  Bitterness: 0
[1]; [10]
  Bitterness: 0
[1]; [11]
  Bitterness: 0
[1]; [12]
  Bitterness: 5
[2]; [13]
  Botanical notes: 4
[2]; [5]
  Botanical notes: 5
[2]; [6]
  Botanical notes: 3
[2]; [7]
  Botanical notes: 2
[2]; [8]
  Botanical notes: 3
[2]; [14]
  Botanical notes: 2
[2]; RebM 700 ppm, quinic backbone modifier between 0 ppm and about 400 ppm
  Botanical notes: imperceptible
[2]; [9]
  Botanical notes: Not Observed
[2]; [15]
  Botanical notes: 0
[2]; [16]
  Botanical notes: 0
[2]; [10]
  Botanical notes: 1
[2]; [17]
  Botanical notes: 0
[2]; [18]
  Botanical notes: 2
[2]; [19]
  Botanical notes: 2
[2]; [11]
  Botanical notes: 2
[2]; [20]
  Botanical notes: 2
[2]; [12]
  Botanical notes: 0
[3]; [13]
  Astringency: 0
[3]; [5]
  Astringency: 4
[3]; [6]
  Astringency: 0
[3]; [7]
  Astringency: 0
[3]; [8]
  Astringency: 0
[3]; [14]
  Astringency: 0
[3]; RebM 700 ppm, 0 ppm to 700 ppm of quinic backbone modifier
  Astringency: no perceptible astringency; also recorded: imperceptible
[3]; [9]
  Astringency: 0
[3]; [15]
  Astringency: Not observed
[3]; [16]
  Astringency: Not observed
[3]; [10]
  Astringency: 0
[3]; [17]
  Astringency: 0
[3]; [18]
  Astringency: Not observed
[3]; [19]
  Astringency: Not observed
[3]; [11]
  Astringency: 0
[3]; [20]
  Astringency: Not observed
[3]; [12]
  Astringency: 0
[4]; RebM 100 ppm + yerba mate mono/dicaffeoylquinic acids 100 ppm (1:1)
  Spikey/rounded (spikey = 0) (rounded = 3): 0
[4]; RebM 200 ppm + yerba mate mono/dicaffeoylquinic acids 200 ppm (1:1)
  Spikey/rounded (spikey = 0) (rounded = 3): 0
[4]; RebM 300 ppm + yerba mate mono/dicaffeoylquinic acids 300 ppm (1:1)
  Spikey/rounded (spikey = 0) (rounded = 3): 1
[4]; RebM 400 ppm + yerba mate mono/dicaffeoylquinic acids 400 ppm (1:1)
  Spikey/rounded (spikey = 0) (rounded = 3): 1
[4]; RebM 500 ppm + yerba mate mono/dicaffeoylquinic acids 500 ppm (1:1)
  Spikey/rounded (spikey = 0) (rounded = 3): 1
[4]; RebM 600 ppm + yerba mate mono/dicaffeoylquinic acids 600 ppm (1:1)
  Spikey/rounded (spikey = 0) (rounded = 3): 1
[4]; [7]
  Spikey/rounded (spikey = 0) (rounded = 3): 0
[4]; [8]
  Spikey/rounded (spikey = 0) (rounded = 3): 2
[4]; [14]
  Spikey/rounded (spikey = 0) (rounded = 3): 3
[4]; RebM 700 ppm + yerba mate mono/dicaffeoylquinic acids 700 ppm (1:1)
  Spikey/rounded (spikey = 0) (rounded = 3): 2
[4]; RebM 700 ppm, above 200 ppm sensory modifier
  rounded quality: 2
[4]; RebM 800 ppm + yerba mate mono/dicaffeoylquinic acids 800 ppm (1:1)
  Spikey/rounded (spikey = 0) (rounded = 3): 2
[4]; RebM 900 ppm + yerba mate mono/dicaffeoylquinic acids 900 ppm (1:1)
  Spikey/rounded (spikey = 0) (rounded = 3): 2
[4]; RebM 1000 ppm + yerba mate mono/dicaffeoylquinic acids 1000 ppm (1:1)
  Spikey/rounded (spikey = 0) (rounded = 3): 2
[4]; RebM 1100 ppm + yerba mate mono/dicaffeoylquinic acids 1100 ppm (1:1)
  Spikey/rounded (spikey = 0) (rounded = 3): 2
[4]; RebM 1200 ppm + yerba mate mono/dicaffeoylquinic acids 1200 ppm (1:1)
  Spikey/rounded (spikey = 0) (rounded = 3): 2
[4]; RebM 1300 ppm + yerba mate mono/dicaffeoylquinic acids 1300 ppm (1:1)
  Spikey/rounded (spikey = 0) (rounded = 3): 2
[4]; RebM 1400 ppm + yerba mate mono/dicaffeoylquinic acids 1400 ppm (1:1)
  Spikey/rounded (spikey = 0) (rounded = 3): 2
[4]; RebM 1500 ppm + yerba mate mono/dicaffeoylquinic acids 1500 ppm (1:1)
  Spikey/rounded (spikey = 0) (rounded = 3): 2
[4]; RebM 1600 ppm + yerba mate mono/dicaffeoylquinic acids 1600 ppm (1:1)
  Spikey/rounded (spikey = 0) (rounded = 3): 2
[4]; RebM solution with 300 ppm sensory modifier
  rounded quality: 3
[4]; [9]
  Spikey/rounded (spikey = 0) (rounded = 3): 2
[4]; [15]
  Spikey/rounded (spikey = 0) (rounded = 3): 2
[4]; [16]
  Spikey/rounded (spikey = 0) (rounded = 3): 3
[4]; [10]
  Spikey/rounded (spikey = 0) (rounded = 3): 3
[4]; [17]
  Spikey/rounded (spikey = 0) (rounded = 3): 3
[4]; [18]
  Spikey/rounded (spikey = 0) (rounded = 3): 2
[4]; [19]
  Spikey/rounded (spikey = 0) (rounded = 3): 3
[4]; [11]
  Spikey/rounded (spikey = 0) (rounded = 3): 3
[4]; [20]
  Spikey/rounded (spikey = 0) (rounded = 3): 3
[4]; [12]
  Spikey/rounded (spikey = 0) (rounded = 3): 0
